According to article PMC10254852, “Design, Synthesis and Anticancer Evaluation of Nitroimidazole Radiosensitisers” (Molecules, 2023):
Read-outs that look alike come from different tables or passages of the source.

What was measured:
UT-SCC-74B cells = assay: In vitro cytotoxicity, 4 h exposure oxic/anoxic, 5-day regrowth, sulforhodamine B; format: cell-based, human; settings: for IC50: Homo sapiens, 4 h exposure, mean ± SEM
HCT116/54C cells = assay: as above; format: cell-based, human; settings: for IC50: Homo sapiens, 4 h exposure, mean ± SEM, n = 3–4
[1] = Plasma pharmacokinetics after single i.v. dose; format: in vivo; settings: female, mouse, iv, NIH-III mice, 2.2 mmol/kg i.v.
Experimental: (§1) Specific pathogen-free six- to eight-week-old female NIH-III mice, bred in the Vernon Jansen Unit, University of Auckland, were used for animal experiments. Animals had ad libitum access to food and water and were maintained in microisolator cages on a 12 h light/dark cycle. All treatments were administered by i.v. injection at a dose of 2.2 mmol/kg and injection volume of 10 mL/kg. Compounds 2, 34 and 38 were administered as solutions in saline containing 1% DMSO or for 9–12 as solutions in saline containing 2 molar equivalents of NaHCO3. Control animals received an i.v. injection of saline at 10 mL/kg. All animal experiments were conducted under the auspices of the University of Auckland Animal Ethics Committee (approval 1781).
Female NIH-III mice were injected with a single i.v. dose of 34 at its MAD of 2.2 mmol/kg in saline. Blood was collected by cardiac puncture under terminal CO2 anaesthesia at 5, 10, 30, 60 and 120 min after dosing. Blood was immediately centrifuged (3000× g, 3 min), and plasma was stored at −80 °C for HPLC. Tumour samples were prepared and analysed by HPLC using standard protocols established in our laboratory.

UT-SCC-74B tumours = assay: Tumour radiosensitisation: ex vivo clonogenic assay; format: in vivo, NIH-III mice
HCT116/54C tumours = assay: as above; format: in vivo, NIH-III mice
FaDu cells = assay: In vitro cytotoxicity, 4 h exposure oxic/anoxic, 5-day regrowth, sulforhodamine B; format: cell-based; settings: for IC50: Homo sapiens, 4 h exposure, mean ± SEM
[2] = tested on: HCT116/54C tumour xenografts; assay: Tumour growth inhibition in combination with radiation; format: in vivo, NIH-III mice; settings: HCT116/54C tumours
Experimental: as §1
(§2) Compounds were evaluated for their ability to inhibit tumour growth in combination with a single dose of radiation (10 Gy) in HCT116/54C or UT-SCC-74B tumour xenografts on the backs of NIH-III mice. In addition, a fractionated radiation schedule (5 Gy on Days 1, 7 and 14) was explored in HCT116/54C tumour xenografts. Mice were randomly assigned to 4 treatment groups and treated with: (A) vehicle control, (B) 10 Gy RAD only, (C) sensitiser only, or (D) sensitiser given 10 min before 10 Gy RAD. Drugs were administered by i.v. injection at 2.2 mmol/kg either as a single dose or three doses on Days 1, 7 and 14 in the fractionated study. Treatment commenced when the average tumour size reached approximately 250 mm^3, and tumour size was measured until study endpoint. Mice were placed in a custom-built lead-shielded jig that allowed irradiation of the whole tumour but shielded the mouse from radiation. Survival analysis represented the time taken for tumours to increase in relative tumour volume by 4× from the start of treatment (RTV^4). The significance of differences in activity between the groups was assessed by log-rank with Holm–Sidak multiple comparison analysis.

[3] = tested on: UT-SCC-74B tumour xenografts; assay: as above; format: in vivo, NIH-III mice; settings: UT-SCC-74B tumours, single dose 2.2 mmol/kg i.v.
Experimental: as §1, §2

[4] = anoxic, n = 3–4, read-out: IC50 Anoxic
[5] = oxic, n = 3–4, read-out: IC50 Oxic
[6] = 2.2 mmol/kg i.v. 5 min prior to 10 Gy radiation, surviving fraction after radiation/surviving fraction after drug + radiation
[7] = 2.2 mmol/kg i.v. + 10 Gy, one-way ANOVA
[8] = drug alone 2.2 mmol/kg i.v., relative to untreated tumours
[9] = 2.2 mmol/kg i.v., 10 Gy, mechanism experiment (Figure 3)

## O=[N+]([O-])c1nccn1CS(=O)(=O)NCCN1CCOCC1 [Compound 34]
UT-SCC-74B cells; [4]
  IC50: 510 ± 80 µM
UT-SCC-74B cells; [5]
  IC50: 12600 ± 1800 µM
UT-SCC-74B cells; IC50(oxic)/IC50(anoxic)
  HCR: 24.5
HCT116/54C cells; HCT116/54C, IC50(oxic)/IC50(anoxic)
  HCR: 38.8
HCT116/54C cells; HCT116/54C, anoxic, read-out: IC50 Anoxic
  IC50: 170 ± 10 µM
HCT116/54C cells; HCT116/54C, oxic, read-out: IC50 Oxic
  IC50: 6400 ± 1000 µM
HCT116/54C cells; range across the cell line panel
  HCR values in vitro: 23–38
[1]
  AUC: 960 µM·h
  Cmax: 1530 µM
  half-life: 1.52 h
UT-SCC-74B tumours; [6]
  Sensitisation Ratio: 13.8
UT-SCC-74B tumours; [7]
  enhancement of tumour cell killing by radiotherapy (RAD vs drug + RAD): significantly enhanced tumour cell killing by radiotherapy
UT-SCC-74B tumours; [8]
  single agent cell kill: 68.4 ± 1.2%
HCT116/54C tumours; [6]
  Sensitisation Ratio: 14.9
HCT116/54C tumours; [7]
  enhancement of tumour killing of radiotherapy (RAD vs drug + RAD): significantly enhanced the tumour killing of radiotherapy
HCT116/54C tumours; [9]
  SR, drug given 5 min before radiation: 9.76
  SR, drug given 20 min after radiation: 1.49
HCT116/54C tumours; [8]
  single agent cell kill: 62.3 ± 7.9%
FaDu cells; [4]
  IC50: 160 ± 10 µM
FaDu cells; [5]
  IC50: 3700 ± 100 µM
FaDu cells; IC50(oxic)/IC50(anoxic)
  HCR: 23.3
[2]; fractionated radiation, p < 0.05
  survival (time to RTV^4) vs radiation alone: significantly increased survival compared to radiation alone
[2]; qw × 3, 5 Gy, 2.2 mmol/kg i.v.
  tumour growth delay with fractionated radiation: delayed tumour growth relative to radiation alone
[2]; single dose 2.2 mmol/kg i.v.
  tumour growth inhibition with single dose 10 Gy radiation: able to sensitise 10 Gy radiation to a similar level observed with 2
[3]
  tumour growth inhibition with single dose 10 Gy radiation: able to sensitise 10 Gy radiation to a similar level observed with 2
